Laboratory results as given in PMC2748165 (Biochemical pharmacology, 2009).

Columns and labels:
[1] = biological target: T1, P-gp (Homo sapiens, UniProt P08183); assay: Inhibition of [3H]-paclitaxel uptake by placental inside-out vesicles
[2] = biological target: T1, P-gp; assay type: biochemical
[3] = tested on: P-gp of CEM leukemia cells; conditions: cited from earlier work
[4] = dual perfusion of human placental lobule; cited from earlier work
[5] = biological target: T1, P-gp; assay: in vitro
[6] = placental IOVs 0.05 mg/mL, 20–500 nM [3H] paclitaxel, n = 10, mean ± SEM

T1 sequence (P08183 whole entry): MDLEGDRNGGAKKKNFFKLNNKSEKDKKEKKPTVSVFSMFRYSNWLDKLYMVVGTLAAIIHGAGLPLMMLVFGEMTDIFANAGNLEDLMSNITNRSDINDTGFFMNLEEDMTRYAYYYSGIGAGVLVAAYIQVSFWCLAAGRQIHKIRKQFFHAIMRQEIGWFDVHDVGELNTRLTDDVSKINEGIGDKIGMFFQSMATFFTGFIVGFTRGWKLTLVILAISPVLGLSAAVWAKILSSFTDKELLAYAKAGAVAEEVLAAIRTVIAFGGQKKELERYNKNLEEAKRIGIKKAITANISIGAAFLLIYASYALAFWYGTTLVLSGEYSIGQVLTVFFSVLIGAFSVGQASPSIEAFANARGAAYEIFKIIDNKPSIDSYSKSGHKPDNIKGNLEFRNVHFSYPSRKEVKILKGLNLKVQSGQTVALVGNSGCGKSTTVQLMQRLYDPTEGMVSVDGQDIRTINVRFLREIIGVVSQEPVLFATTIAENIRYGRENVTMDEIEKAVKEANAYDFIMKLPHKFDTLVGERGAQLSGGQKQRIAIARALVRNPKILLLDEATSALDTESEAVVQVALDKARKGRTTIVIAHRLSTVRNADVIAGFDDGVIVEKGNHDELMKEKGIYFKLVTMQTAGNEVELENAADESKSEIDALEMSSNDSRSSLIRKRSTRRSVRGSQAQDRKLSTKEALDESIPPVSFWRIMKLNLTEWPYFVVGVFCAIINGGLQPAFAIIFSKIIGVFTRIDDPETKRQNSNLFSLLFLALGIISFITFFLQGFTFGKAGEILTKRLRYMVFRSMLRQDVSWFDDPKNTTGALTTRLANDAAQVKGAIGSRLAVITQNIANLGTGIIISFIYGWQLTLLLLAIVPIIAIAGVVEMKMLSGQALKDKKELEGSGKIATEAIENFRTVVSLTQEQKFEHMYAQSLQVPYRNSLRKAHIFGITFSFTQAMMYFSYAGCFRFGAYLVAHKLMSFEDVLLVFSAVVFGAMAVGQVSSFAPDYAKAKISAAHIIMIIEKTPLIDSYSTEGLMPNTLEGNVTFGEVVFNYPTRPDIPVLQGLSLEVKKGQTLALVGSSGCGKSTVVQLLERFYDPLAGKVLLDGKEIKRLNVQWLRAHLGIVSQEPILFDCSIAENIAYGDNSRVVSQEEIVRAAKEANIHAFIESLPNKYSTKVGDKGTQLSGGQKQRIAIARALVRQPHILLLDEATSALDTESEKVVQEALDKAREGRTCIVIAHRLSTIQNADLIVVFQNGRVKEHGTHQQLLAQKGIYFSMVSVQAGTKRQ

## COc1ccc(CCN(C)CCCC(C#N)(c2ccc(OC)c(OC)c2)C(C)C)cc1OC (stereo not drawn) [verapamil]
[1]
  inhibition at 1 min, 2 mM: 99 ± 9%

## CC(=O)O[C@H]1C(=O)[C@@]2(C)[C@H]([C@H](OC(=O)c3ccccc3)[C@]3(O)C[C@H](OC(=O)[C@H](O)[C@@H](NC(=O)c4ccccc4)c4ccccc4)C(C)=C1C3(C)C)[C@]1(OC(C)=O)CO[C@@H]1C[C@@H]2O [paclitaxel]
[2]; 200 individual placentas, mean
  ATP dependent uptake of [3H]-paclitaxel into IOVs, mean: 23 pmol*mg protein^−1min^−1
[2]; 200 individual placentas, range
  ATP dependent uptake of [3H]-paclitaxel into IOVs, range: 1–140 pmol*mg protein^−1min^−1
[2]; [6]
  Vmax of ATP-dependent [3H] paclitaxel uptake: 20 ± 3 pmol*mg protein^−1min^−1
  apparent Kt of ATP-dependent [3H] paclitaxel uptake: 66 ± 38 nM
[3]; cells passaged in vinblastine, multidrug resistant, overexpressing P-gp
  apparent Kt of paclitaxel transport, CEM cells overexpressing P-gp: 63 ± 46 nM
[3]; parental cells
  Kt of paclitaxel transport, parental CEM cells: 144 ± 56 nM

## CCC(=O)C(CC(C)N(C)C)(c1ccccc1)c1ccccc1 (stereo not drawn) [methadone]
[4]
  rate of transfer from the maternal to fetal circuit: 29.4 ± 4.6%
[5]
  inhibition at 1 min: 60%
